Key:
[1] = biological target: Tyrosine-protein kinase JAK3 (Homo sapiens) (UniProt P52333); details: Compound concentration 1000.0 nM
[2] = biological target: Vascular endothelial growth factor receptor 2 (Homo sapiens) (UniProt P35968); details: Compound concentration 1000.0 nM
[3] = biological target: Sodium/hydrogen exchanger 2 (Homo sapiens, UniProt Q9UBY0); test: pHi change assay with SLC9A2
[4] = tested on: Tyrosine-protein kinase ABL1 (Homo sapiens), P00519 [F317I]; details: Compound concentration 1000.0 nM
[5] = biological target: Fibroblast growth factor receptor 4 (Homo sapiens) (UniProt P22455); details: Compound concentration 1000.0 nM
[6] = tested on: Mast/stem cell growth factor receptor Kit (Homo sapiens), P10721 [V559D]; details: Compound concentration 1000.0 nM
[7] = biological target: Tyrosine-protein kinase CSK (Homo sapiens) (UniProt P41240); details: Compound concentration 1000.0 nM
[8] = biological target: Ephrin type-B receptor 4 (Homo sapiens) (UniProt P54760); details: Compound concentration 1000.0 nM
[9] = biological target: Calcium/calmodulin-dependent protein kinase type II subunit alpha (Homo sapiens) (UniProt Q9UQM7); details: Compound concentration 1000.0 nM
[10] = biological target: Tyrosine-protein kinase Fer (Homo sapiens) (UniProt P16591); details: Compound concentration 1000.0 nM
[11] = biological target: Cyclin-dependent kinase 18 (Homo sapiens) (UniProt Q07002); details: Compound concentration 1000.0 nM
[12] = tested on: Phosphatidylinositol 4,5-bisphosphate 3-kinase catalytic subunit alpha isoform (Homo sapiens), P42336 [C420R]; details: Compound concentration 1000.0 nM
[13] = biological target: Myosin-IIIa (Homo sapiens) (UniProt Q8NEV4); details: Compound concentration 1000.0 nM
[14] = species on record: Rattus norvegicus; details: Compound concentration 10.0 uM
[15] = biological target: Protein kinase C iota type (Homo sapiens) (UniProt P41743); details: Compound concentration 1000.0 nM
[16] = biological target: Tyrosine-protein kinase ABL1 (Homo sapiens) (UniProt P00519); details: Compound concentration 1000.0 nM
[17] = biological target: Serine/threonine-protein kinase RIO1 (Homo sapiens) (UniProt Q9BRS2); details: Compound concentration 1000.0 nM
[18] = biological target: Sodium/hydrogen exchanger 3 (Homo sapiens, UniProt P48764); test: pHi change assay with SLC9A3
[19] = biological target: Cyclin-dependent kinase 13 (Homo sapiens) (UniProt Q14004); details: Compound concentration 1000.0 nM
[20] = biological target: 5-hydroxytryptamine receptor 6 (Homo sapiens) (UniProt P50406); details: Compound concentration 10.0 uM
[21] = biological target: Calcium-dependent protein kinase 1 (Plasmodium falciparum) (UniProt P62344); details: Compound concentration 1000.0 nM
[22] = biological target: Myosin light chain kinase (Homo sapiens) (UniProt Q32MK0); details: Compound concentration 1000.0 nM
[23] = biological target: Bone morphogenetic protein receptor type-1A (Homo sapiens) (UniProt P36894); details: Compound concentration 1000.0 nM
[24] = tested on: Mast/stem cell growth factor receptor Kit (Homo sapiens), P10721 [V559D,V654A]; details: Compound concentration 1000.0 nM
[25] = biological target: Testis-specific serine/threonine-protein kinase 1 (Homo sapiens) (UniProt Q9BXA7); details: Compound concentration 1000.0 nM
[26] = biological target: Serine/threonine-protein kinase PLK2 (Homo sapiens) (UniProt Q9NYY3); details: Compound concentration 1000.0 nM
[27] = biological target: Serine/threonine-protein kinase MRCK alpha (Homo sapiens) (UniProt Q5VT25); details: Compound concentration 1000.0 nM
[28] = biological target: Tyrosine-protein kinase receptor Tie-1 (Homo sapiens) (UniProt P35590); details: Compound concentration 1000.0 nM
[29] = biological target: Phosphatidylinositol 4,5-bisphosphate 3-kinase catalytic subunit beta isoform (Homo sapiens) (UniProt P42338); details: Compound concentration 1000.0 nM
[30] = biological target: SNF-related serine/threonine-protein kinase (Homo sapiens) (UniProt Q9NRH2); details: Compound concentration 1000.0 nM
[31] = biological target: Phosphatidylinositol 5-phosphate 4-kinase type-2 gamma (Homo sapiens) (UniProt Q8TBX8); details: Compound concentration 1000.0 nM
[32] = biological target: Serine/threonine-protein kinase MAK (Homo sapiens) (UniProt P20794); details: Compound concentration 1000.0 nM
[33] = biological target: Serine/threonine-protein kinase 16 (Homo sapiens) (UniProt O75716); details: Compound concentration 1000.0 nM
[34] = biological target: Protein-tyrosine kinase 6 (Homo sapiens) (UniProt Q13882); details: Compound concentration 1000.0 nM
[35] = tested on: Tyrosine-protein kinase ABL1 (Homo sapiens), P00519 [F317I]; details: Compound concentration 1000.0 nM; remark: listed apart in the source
[36] = biological target: Phosphatidylinositol 3-kinase C2 domain-containing subunit gamma (Homo sapiens) (UniProt O75747); details: Compound concentration 1000.0 nM
[37] = biological target: Leucine-rich repeat serine/threonine-protein kinase 2 (Homo sapiens) (UniProt Q5S007); details: Compound concentration 1000.0 nM
[38] = biological target: Aurora kinase A (Homo sapiens) (UniProt O14965); details: Compound concentration 1000.0 nM
[39] = biological target: T1, Alpha-1A adrenergic receptor (Homo sapiens) (UniProt P35348); details: Compound concentration 10.0 uM
T1 sequence (whole entry): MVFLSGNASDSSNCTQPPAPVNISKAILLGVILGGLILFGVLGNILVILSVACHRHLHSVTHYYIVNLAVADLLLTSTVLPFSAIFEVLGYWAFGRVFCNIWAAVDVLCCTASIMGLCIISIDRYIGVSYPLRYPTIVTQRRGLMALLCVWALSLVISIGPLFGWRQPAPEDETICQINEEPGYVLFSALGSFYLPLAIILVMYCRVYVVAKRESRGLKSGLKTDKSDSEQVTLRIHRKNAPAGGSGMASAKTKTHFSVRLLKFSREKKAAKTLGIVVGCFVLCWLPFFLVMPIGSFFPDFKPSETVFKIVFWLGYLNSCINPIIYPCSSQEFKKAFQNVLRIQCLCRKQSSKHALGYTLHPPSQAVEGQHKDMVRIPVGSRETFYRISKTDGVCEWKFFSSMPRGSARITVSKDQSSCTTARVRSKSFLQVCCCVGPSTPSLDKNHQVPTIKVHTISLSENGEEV

[40] = biological target: Activin receptor type-1B (Homo sapiens) (UniProt P36896); details: Compound concentration 1000.0 nM

Tyrosine-protein kinase ABL1 (Homo sapiens), P00519 [F317I], sequence (P00519 whole entry F317I, the tested form may be a part): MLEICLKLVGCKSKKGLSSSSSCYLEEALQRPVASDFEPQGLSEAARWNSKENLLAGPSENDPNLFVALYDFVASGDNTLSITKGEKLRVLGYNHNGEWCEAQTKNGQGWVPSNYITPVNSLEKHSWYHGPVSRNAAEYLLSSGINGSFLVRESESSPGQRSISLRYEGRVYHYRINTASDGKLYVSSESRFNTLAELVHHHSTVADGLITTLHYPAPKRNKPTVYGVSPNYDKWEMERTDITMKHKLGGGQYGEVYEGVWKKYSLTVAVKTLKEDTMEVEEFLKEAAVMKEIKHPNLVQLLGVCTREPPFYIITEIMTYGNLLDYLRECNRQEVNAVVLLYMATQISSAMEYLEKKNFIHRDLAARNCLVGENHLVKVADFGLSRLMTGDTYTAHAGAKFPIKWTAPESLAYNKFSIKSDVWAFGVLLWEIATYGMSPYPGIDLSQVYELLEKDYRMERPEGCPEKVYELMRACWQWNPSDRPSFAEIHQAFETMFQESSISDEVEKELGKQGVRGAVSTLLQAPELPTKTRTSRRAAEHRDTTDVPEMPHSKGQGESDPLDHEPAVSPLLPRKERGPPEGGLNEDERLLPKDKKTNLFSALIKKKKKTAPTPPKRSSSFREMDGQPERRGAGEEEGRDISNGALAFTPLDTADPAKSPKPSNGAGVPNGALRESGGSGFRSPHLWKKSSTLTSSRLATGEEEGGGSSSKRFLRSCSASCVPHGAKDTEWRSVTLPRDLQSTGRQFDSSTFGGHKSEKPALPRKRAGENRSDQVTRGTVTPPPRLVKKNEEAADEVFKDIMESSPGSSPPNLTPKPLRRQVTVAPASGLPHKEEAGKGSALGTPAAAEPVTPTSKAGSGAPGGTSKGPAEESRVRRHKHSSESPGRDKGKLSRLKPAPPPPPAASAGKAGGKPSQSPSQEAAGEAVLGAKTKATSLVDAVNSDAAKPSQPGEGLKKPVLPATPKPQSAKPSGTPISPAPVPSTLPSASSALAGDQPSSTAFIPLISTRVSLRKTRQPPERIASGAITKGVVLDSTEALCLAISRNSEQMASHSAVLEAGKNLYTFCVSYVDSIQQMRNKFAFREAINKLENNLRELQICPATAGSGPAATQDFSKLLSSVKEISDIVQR
Serine/threonine-protein kinase MAK (Homo sapiens), sequence (P20794 whole entry): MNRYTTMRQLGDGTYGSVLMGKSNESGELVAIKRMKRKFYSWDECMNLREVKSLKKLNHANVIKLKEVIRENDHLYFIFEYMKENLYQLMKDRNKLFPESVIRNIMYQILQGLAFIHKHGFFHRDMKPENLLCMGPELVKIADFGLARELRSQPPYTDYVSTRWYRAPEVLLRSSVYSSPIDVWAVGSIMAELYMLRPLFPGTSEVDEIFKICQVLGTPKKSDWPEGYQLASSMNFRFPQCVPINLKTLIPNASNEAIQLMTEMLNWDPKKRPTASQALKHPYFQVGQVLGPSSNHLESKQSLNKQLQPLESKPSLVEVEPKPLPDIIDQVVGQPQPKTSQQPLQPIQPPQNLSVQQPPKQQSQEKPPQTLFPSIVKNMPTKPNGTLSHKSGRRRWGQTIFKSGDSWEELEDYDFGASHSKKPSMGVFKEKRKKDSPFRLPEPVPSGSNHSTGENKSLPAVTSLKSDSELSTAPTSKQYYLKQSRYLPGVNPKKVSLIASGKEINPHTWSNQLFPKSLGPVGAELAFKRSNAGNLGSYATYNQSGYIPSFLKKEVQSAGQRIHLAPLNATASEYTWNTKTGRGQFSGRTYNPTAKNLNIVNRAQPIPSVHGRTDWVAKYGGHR
Testis-specific serine/threonine-protein kinase 1 (Homo sapiens), sequence (Q9BXA7 whole entry): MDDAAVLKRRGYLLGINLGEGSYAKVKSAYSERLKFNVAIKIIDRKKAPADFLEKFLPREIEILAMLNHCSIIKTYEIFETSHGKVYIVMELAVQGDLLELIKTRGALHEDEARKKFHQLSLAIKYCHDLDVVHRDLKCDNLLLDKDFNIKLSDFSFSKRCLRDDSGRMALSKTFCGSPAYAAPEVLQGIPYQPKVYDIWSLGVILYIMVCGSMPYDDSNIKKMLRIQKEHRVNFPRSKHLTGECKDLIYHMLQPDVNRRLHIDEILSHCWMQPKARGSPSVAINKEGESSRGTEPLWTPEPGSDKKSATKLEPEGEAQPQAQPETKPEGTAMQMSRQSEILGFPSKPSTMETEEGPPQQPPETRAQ
Tyrosine-protein kinase Fer (Homo sapiens), sequence (P16591 whole entry, looked up): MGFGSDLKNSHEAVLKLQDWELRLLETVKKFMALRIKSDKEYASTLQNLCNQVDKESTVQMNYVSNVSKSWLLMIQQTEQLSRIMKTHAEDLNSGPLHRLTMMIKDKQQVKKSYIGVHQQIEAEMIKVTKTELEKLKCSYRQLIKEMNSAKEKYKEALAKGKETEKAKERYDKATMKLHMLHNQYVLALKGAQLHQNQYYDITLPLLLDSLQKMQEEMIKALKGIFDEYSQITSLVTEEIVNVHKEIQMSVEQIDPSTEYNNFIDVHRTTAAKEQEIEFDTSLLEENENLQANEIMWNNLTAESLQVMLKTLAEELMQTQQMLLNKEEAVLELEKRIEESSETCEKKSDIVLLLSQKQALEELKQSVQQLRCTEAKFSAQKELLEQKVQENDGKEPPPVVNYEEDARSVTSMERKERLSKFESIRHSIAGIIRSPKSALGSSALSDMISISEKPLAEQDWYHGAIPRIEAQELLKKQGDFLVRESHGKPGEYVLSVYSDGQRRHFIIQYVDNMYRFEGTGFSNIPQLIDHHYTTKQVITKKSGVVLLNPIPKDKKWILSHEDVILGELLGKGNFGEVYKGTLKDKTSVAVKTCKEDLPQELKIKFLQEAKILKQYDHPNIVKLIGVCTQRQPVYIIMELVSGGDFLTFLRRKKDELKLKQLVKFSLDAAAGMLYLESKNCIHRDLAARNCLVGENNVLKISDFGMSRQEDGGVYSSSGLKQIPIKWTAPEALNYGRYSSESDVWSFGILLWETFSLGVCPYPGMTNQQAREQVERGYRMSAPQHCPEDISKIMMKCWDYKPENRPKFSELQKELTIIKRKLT
Mast/stem cell growth factor receptor Kit (Homo sapiens), P10721 [V559D], sequence (P10721 whole entry V559D): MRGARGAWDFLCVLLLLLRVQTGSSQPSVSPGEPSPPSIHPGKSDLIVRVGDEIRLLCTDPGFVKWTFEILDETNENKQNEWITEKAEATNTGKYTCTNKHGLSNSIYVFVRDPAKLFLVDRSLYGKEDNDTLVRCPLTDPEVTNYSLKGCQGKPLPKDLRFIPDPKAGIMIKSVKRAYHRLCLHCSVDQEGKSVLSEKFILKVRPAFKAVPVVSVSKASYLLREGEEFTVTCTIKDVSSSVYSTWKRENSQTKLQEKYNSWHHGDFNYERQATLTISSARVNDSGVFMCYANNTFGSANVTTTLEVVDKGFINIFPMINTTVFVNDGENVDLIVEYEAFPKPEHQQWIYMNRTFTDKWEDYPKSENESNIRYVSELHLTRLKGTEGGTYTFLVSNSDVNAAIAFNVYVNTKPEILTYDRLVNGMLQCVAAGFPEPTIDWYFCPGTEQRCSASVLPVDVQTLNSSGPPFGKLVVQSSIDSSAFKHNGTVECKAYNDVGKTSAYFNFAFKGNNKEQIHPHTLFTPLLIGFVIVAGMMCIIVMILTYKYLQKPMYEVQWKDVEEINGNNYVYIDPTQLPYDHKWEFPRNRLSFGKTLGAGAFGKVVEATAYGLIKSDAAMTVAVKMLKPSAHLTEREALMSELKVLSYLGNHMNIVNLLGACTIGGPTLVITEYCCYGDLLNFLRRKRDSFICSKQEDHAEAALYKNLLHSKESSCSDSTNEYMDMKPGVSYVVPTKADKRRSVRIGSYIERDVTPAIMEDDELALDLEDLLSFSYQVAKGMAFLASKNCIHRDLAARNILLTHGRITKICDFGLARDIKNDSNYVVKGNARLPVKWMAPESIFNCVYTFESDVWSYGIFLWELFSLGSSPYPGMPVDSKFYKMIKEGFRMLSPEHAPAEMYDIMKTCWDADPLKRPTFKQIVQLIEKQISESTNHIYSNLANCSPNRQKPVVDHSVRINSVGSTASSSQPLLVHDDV
Tyrosine-protein kinase receptor Tie-1 (Homo sapiens), sequence (P35590 whole entry, canonical isoform): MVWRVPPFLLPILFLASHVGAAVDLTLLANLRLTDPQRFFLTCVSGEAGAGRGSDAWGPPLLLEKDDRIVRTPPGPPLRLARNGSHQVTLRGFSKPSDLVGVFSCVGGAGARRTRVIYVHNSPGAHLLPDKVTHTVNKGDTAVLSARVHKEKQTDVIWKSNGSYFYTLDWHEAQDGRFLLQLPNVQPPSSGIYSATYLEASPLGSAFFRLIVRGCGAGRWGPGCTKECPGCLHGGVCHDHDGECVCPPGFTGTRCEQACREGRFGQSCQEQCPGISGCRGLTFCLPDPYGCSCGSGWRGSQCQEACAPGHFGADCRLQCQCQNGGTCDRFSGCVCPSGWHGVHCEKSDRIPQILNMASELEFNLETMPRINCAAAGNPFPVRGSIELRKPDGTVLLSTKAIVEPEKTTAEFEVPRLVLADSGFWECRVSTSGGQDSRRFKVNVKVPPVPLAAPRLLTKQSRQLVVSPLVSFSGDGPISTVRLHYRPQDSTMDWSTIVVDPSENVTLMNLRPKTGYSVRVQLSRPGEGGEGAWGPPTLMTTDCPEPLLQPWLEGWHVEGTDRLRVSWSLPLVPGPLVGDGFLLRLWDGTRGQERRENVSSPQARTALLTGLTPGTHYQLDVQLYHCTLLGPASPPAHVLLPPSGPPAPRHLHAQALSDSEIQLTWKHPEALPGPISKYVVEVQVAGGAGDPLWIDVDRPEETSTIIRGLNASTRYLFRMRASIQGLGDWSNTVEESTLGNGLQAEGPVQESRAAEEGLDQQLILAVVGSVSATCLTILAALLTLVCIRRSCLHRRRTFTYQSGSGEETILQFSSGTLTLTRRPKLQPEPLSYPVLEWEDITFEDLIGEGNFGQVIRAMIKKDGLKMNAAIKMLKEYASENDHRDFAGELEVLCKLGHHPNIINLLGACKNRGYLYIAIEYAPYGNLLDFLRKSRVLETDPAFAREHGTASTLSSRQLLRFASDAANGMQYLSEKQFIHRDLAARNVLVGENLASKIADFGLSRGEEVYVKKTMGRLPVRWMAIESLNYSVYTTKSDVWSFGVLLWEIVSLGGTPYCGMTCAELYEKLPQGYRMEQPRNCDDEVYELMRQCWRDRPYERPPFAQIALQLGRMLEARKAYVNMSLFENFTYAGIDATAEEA
Mast/stem cell growth factor receptor Kit (Homo sapiens), P10721 [V559D,V654A], sequence (P10721 whole entry V559D/V654A): as the sequence (P10721 whole entry V559D) above, with V654A counted along it

Row | SMILES | residual activity [1] [%] | residual activity [2] [%] | IC50 [3] | residual activity [4] [%] | residual activity [5] [%] | residual activity [6] [%] | residual activity [7] [%] | residual activity [8] [%] | residual activity [9] [%] | residual activity [10] [%] | residual activity [11] [%] | residual activity [12] [%] | residual activity [13] [%] | inhibition [14] [%] | residual activity [15] [%] | residual activity [16] [%] | residual activity [17] [%] | IC50 [18] | residual activity [19] [%] | inhibition [20] [%] | other results
1 | CC(=O)N1CCC(c2ccc(C(=O)NC3=NCCN3)cc2C(F)(F)F)CC1 [BI 0054] | 100 | 80 | > 10 µM (not active) | 77 | 88 | 100 | 100 | 100 | 94 | 93 | 100 | 93 | 100 | -2.17 | 83 | 95 | 100 | > 10 µM (not active) | 100 | 0.267 | residual activity [21]: 90%; residual activity [22]: 100%; residual activity [23]: 100%; residual activity [24]: 100%; residual activity [25]: 100%; residual activity [26]: 80%; residual activity [27]: 100%; residual activity [28]: 82%; residual activity [29]: 100%; residual activity [30]: 98%; residual activity [31]: 94%; residual activity [32]: 61%; residual activity [33]: 100%; residual activity [34]: 88%; residual activity [35]: 94%; residual activity [36]: 85%; residual activity [37]: 100%; residual activity [38]: 100%; inhibition [39]: -5.1%; residual activity [40]: 100%
2 | CC(=O)N1CCC(c2ccc(C(=O)NC(=N)N)cc2C(F)(F)F)CC1 [BI 9627] | 100 | 93 | 0.231 µM (not active) | 92 | 100 | 100 | 100 | 100 | 100 | 96 | 94 | 100 | 100 | 6.39 | 100 | 93 | 100 | > 16 µM (not active) | 100 | 1.25 | residual activity [21]: 87%; residual activity [22]: 100%; residual activity [23]: 100%; residual activity [24]: 100%; residual activity [25]: 100%; residual activity [26]: 93%; residual activity [27]: 100%; residual activity [28]: 100%; residual activity [29]: 100%; residual activity [30]: 100%; residual activity [31]: 100%; residual activity [32]: 79%; residual activity [33]: 100%; residual activity [34]: 100%; residual activity [35]: 96%; residual activity [36]: 100%; residual activity [37]: 100%; residual activity [38]: 87%; inhibition [39]: 6.05%; residual activity [40]: 93%

— ChEMBL document CHEMBL4507279, “Data for DCP probe BI-9627” (2021)
